Results taken from patent US20230210864A1, “AGENT FOR PROMOTING CORNEAL ENDOTHELIAL CELL ADHESION” (Senju Pharmaceutical Co., Ltd., priority 2007, published 2023).

Assays:
[1] = tested on: monkey corneal endothelial cells; test: Density of cultured monkey corneal endothelial cells over repeated passages; format: cell-based, Macaca fascicularis; conditions: Y-27632 10 μM, passage repeated 7 times
Protocol: From the corneal tissue isolated from Macaca fascicularis euthanized, Descemet's membrane with corneal endothelial cells attached thereto was separated. The Descemet's membrane was incubated together with Dispase II (1.2 U/ml, Roche Applied Science) under the conditions of 37° C., 5% CO2 for 45 min, and the corneal endothelial cells were mechanically separated by a pipetting operation. The separated corneal endothelial cells were centrifuged and seeded on a medium for corneal endothelium. The corneal endothelial cells that reached confluent were incubated with 0.05% trypsin under the conditions of 37° C., 5% CO2 for 10 min, and passage-cultured. A medium for corneal endothelium added with Y-27632 (10 μM) was used for the ROCK inhibitor(+) group and a medium for corneal endothelium without addition of Y-27632 was used for the ROCK inhibitor(−) group. At 72 hr from the start of the culture, the culture medium was exchanged and, after 72 hr, both the ROCK inhibitor(+) group and ROCK inhibitor(−) group were cultured in a normal medium for corneal endothelium free of Y-27632. On every passage, photographs of the cells were taken with a phase contrast microscope, cell density was measured, and the influence of Y-27632 on the density of the cultured monkey corneal endothelial cells was studied.

[2] = tested on: monkey corneal endothelial cells; test: Cell cycle of monkey corneal endothelial cells (anti-Ki67 antibody immunostaining and flow cytometry); format: cell-based, Macaca fascicularis; conditions: Y-27632 10 μM
Protocol: The Macaca fascicularis corneal endothelial cells passage-cultured in the same manner as in Example 6 were subcultured on a slide glass to a dilution of ¼. A medium for corneal endothelium added with Y-27632 (10 μM) was used for the ROCK inhibitor(+) group and a medium for corneal endothelium without addition of Y-27632 was used for the ROCK inhibitor(−) group. On days 1, 2 and 14 of the passage culture, the corneal endothelial cells on the slide glass were fixed with 4% para-formaldehyde at room temperature for 10 min, and immunostained with anti-Ki67 antibody (FIG. 11). Similarly, moreover, the Macaca fascicularis corneal endothelial cells were passage-cultured to a dilution of ¼ in each of the ROCK inhibitor(+) group and ROCK inhibitor(−) group. On days 1 and 2 of the passage culture, the cells were collected using 0.05% trypsin and subjected to flow cytometry using anti-Ki67 antibody, and the cell cycle was examined (FIGS. 12 and 13).

[3] = tested on: monkey corneal endothelial cells; test: Cell morphology in passage culture of monkey corneal endothelial cells (phase contrast, phalloidin fluorescence staining); format: cell-based, Macaca fascicularis; conditions: passage culture on slide glass
Protocol: The Macaca fascicularis corneal endothelial cells passage-cultured in the same manner as in Example 6 were subcultured on a slide glass to a dilution of ¼. […] Furthermore, the corneal endothelial cells on the slide glass were fixed with 4% para-formaldehyde at room temperature for 10 min, and actin fiber was stained by phalloidin fluorescence staining (FIGS. 10A and 10B).

[4] = tested on: monkey corneal endothelial cells; test: Apoptosis of monkey corneal endothelial cells (flow cytometry with Annexin V and PI); format: cell-based, Macaca fascicularis; conditions: Y-27632 10 μM, day 1 of the passage culture
Protocol: The Macaca fascicularis corneal endothelial cells passage-cultured in the same manner as in Example 6 were subcultured to a dilution of ¼. A medium for corneal endothelium added with Y-27632 (10 μM) was used for the ROCK inhibitor(+) group and a medium for corneal endothelium without addition of Y-27632 was used for the ROCK inhibitor(−) group. On day 1 of the passage culture, all the cells including those in the medium were collected using 0.05% trypsin and subjected to flow cytometry using Annexin V and PI (Propidium Iodide), and apoptosis was examined (FIGS. 14 and 15).

[5] = tested on: human corneal endothelial cells; test: Primary culture of human corneal endothelial cells with Y-27632, phase contrast observation; format: cell-based; conditions: Y-27632 10 μM
Protocol: Of human corneal tissues obtained from the US eye bank, the central part (diameter 7 mm) had been used for corneal transplantation and the remaining surrounding corneal tissue was used. The Descemet's membrane with corneal endothelial cells adhered thereto was separated. For the ROCK inhibitor(+) group, the Descemet's membrane was placed in a medium for corneal endothelium added with Y-27632 (10 μM) and incubated under the conditions of 37° C., 5% CO2 for 10 min. For the ROCK inhibitor(−) group, the membrane was placed in a medium for corneal endothelium without addition of Y-27632 and incubated for 10 min under the same conditions. As the medium for corneal endothelium, the same culture medium as in Example 1 was used. The Descemet's membrane after the incubation was incubated together with Dispase II (1.2 U/ml, Roche Applied Science) under the conditions of 37° C., 5% CO2 for 45 min, and the corneal endothelial cells were mechanically separated by a pipetting operation. The separated corneal endothelial cells were centrifuged and stirred in the media for corneal endothelium with Y-27632(+) and Y-27632(−) to the same concentration, and the cells were seeded on a 48 well plate pre-treated with an FNC coating mix (Athena ES) at a density of about 10000 cells per well. […]

[6] = tested on: monkey corneal endothelial cells; test: Passage culture of monkey corneal endothelial cells with Y-27632, cell count by CellTiter-Glo; format: cell-based, Macaca fascicularis; conditions: Y-27632 10 μM, dilution ½, ⅙ or ⅛
Protocol: From the corneal tissue isolated from Macaca fascicularis euthanized, Descemet's membrane with corneal endothelial cells attached thereto was separated. The Descemet's membrane was incubated together with Dispase II (1.2 U/ml, Roche Applied Science) under the conditions of 37° C., 5% CO2 for 45 min, and the corneal endothelial cells were mechanically separated by a pipetting operation. The separated corneal endothelial cells were centrifuged and seeded on a media for corneal endothelium. The corneal endothelial cells that reached confluent were incubated with 0.05% trypsin under the conditions of 37° C., 5% CO2 for 10 min, and passage-cultured. After 4 to 6 passages, the corneal endothelial cells were placed in a 96-well plate to a dilution of ½, ⅙ or ⅛. The passage culture was continued using a medium for corneal endothelium added with Y-27632 (10 μM) for the ROCK inhibitor(+) group and a medium for corneal endothelium without addition of Y-27632 for the ROCK inhibitor(−) group. At 24 hr after the passage, the cells were counted in the same manner as in Example 5 using CellTiter-Glo (registered trade mark, Promega) (FIG. 8).

[7] = days 1 and 2 of the passage culture

SMILES: CC(N)[C@H]1CC[C@H](C(=O)Nc2ccncc2)CC1 (single isomer, unassigned; (+)) [Y-27632, (+)-trans-4-(1-aminoethyl)-1-(4-pyridylcarbamoyl)cyclohexane]
- cell density throughout the passage culture, compared to ROCK inhibitor(−) group [1]: higher cell density
- number of Ki67 positive cells by immunostaining, compared to ROCK inhibitor(−) group ([2]; day 14, almost confluent): less than that of the ROCK inhibitor(−) group
- Ki67 positive cells by flow cytometry, compared to ROCK inhibitor(−) group [2, 7]: contained many Ki67 positive cells
- Ki67 positive cells by immunostaining, compared to ROCK inhibitor(−) group [2, 7]: contained many Ki67 positive cells
- actin stress fiber (phalloidin fluorescence staining) ([3]; 24 hr): actin stress fiber was clearly observed
- cell adhesion and morphology at 24 hr after the passage (phase contrast) ([3]; dilution ¼): adhesion of the cells onto the slide glass increased, flattening to corneal endothelial cell-like cells was promoted, and aggregation of cells also increased
- number of apoptotic cells per 1×10^4 cells, compared to ROCK inhibitor(−) group [4]: significant decrease
- ratio of apoptotic cells to the entire cells, compared to ROCK inhibitor(−) group [4]: significant decrease
- cell layer morphology and density on day 7 after the start of the culture [5]: a confluent and highly dense single cell layer consisting of cells (uniform polygonal cells) similar to normal corneal endothelial cells was formed
- number of cells that adhered onto the plate at 24 hr after the passage, compared to medium without Y-27632 [6]: significantly high
